Experimental data as given in patent US9975900B2, “Substituted imidazo[1,2-α]pyrazines for treating spinal muscular atrophy” (Hoffmann-La Roche Inc., priority 2014, dated 2018).
Structures can show the parent of a compound that is named as a salt.

Assays:
[1] = test system: full length SMN2 minigene mRNA (HEK293H cells stably transfected with the SMN2-A minigene construct); assay: RT-qPCR assay for SMN2 minigene pre-mRNA splicing in cultured cells; format: cell-based; details: Homo sapiens, HEK293-H, 24 hours, 7-point concentration curve, concentration giving 1.5-fold FL SMN2mini mRNA vs vehicle, read-out: EC1.5x minigene (EC1.5x concentration for production of full length SMN2 minigene mRNA)
Method: The reverse transcription-quantitative PCR-based (RT-qPCR) assay is used to quantify the level of the full length SMN2 minigene (referred to herein by the term “FL SMN2mini”) mRNA containing SMN2 exon 7 in a HEK293H cell line stably transfected with said minigene and treated with a test compound. Materials used and respective sources are listed below in Table 1.
The SMN2-A minigene construct was prepared as described in International Patent Application WO2009/151546A1 page 145 paragraph [00400] to page 147 paragraph [00412] (incl. FIG. 1 and FIG. 3 therein).
HEK293H cells stably transfected with the SMN2-A minigene construct (10,000 cells/well) are seeded in 200 μL of cell culture medium (DMEM plus 10% FBS, with 200 μg/mL hygromycin) in 96-well flat-bottom plates and the plate is immediately swirled to ensure proper dispersal of cells and the formation of an even monolayer of cells. Cells are allowed to attach for 6 hours. Test compounds are serially diluted 3.16-fold in 100% DMSO to generate a 7-point concentration curve. A solution of test compound (1 μL, 200× in DMSO) is added to each cell-containing well and the plate is incubated for 24 hours in a cell culture incubator (37° C., 5% CO2, 100% relative humidity). 2 replicates are prepared for each test compound concentration. The cells are then lysed in the Cells-To-Ct lysis buffer and the lysate is stored at −80° C.
Full length SMN2-A minigene and GAPDH mRNA are quantified using the primers and probes referenced in Table 2. Primer SMN Forward A (SEQ ID NO.1) hybridizes to a nucleotide sequence in exon 7 (nucleotide 22 to nucleotide 40), primer SMN Reverse A (SEQ ID NO.2) hybridizes to a nucleotide sequence in the coding sequence of Firefly luciferase, SMN Probe A (SEQ ID NO.3) hybridizes to a nucleotide sequence in exon 7 (nucleotide 50 to nucleotide 54) and exon 8 (nucleotide 1 to nucleotide 21). The combination of these three oligonucleotides detects only SMN1 or SMN2 minigenes (RT-qPCR) and will not detect endogenous SMN1 or SMN2 genes.
The SMN forward and reverse primers are used at final concentrations of 0.4 μM. The SMN probe is used at a final concentration of 0.15 μM. The GAPDH primers are used at final concentrations of 0.2 μM and the probe at 0.15 μM.
The SMN2-minigene GAPDH mix (15 μL total volume) is prepared by combining 7.5 of 2×RT-PCR buffer, 0.4 μL of 25×RT-PCR enzyme mix, 0.75 μL of 20× GAPDH primer-probe mix, […] of water, 2 μL of 10-fold diluted cell lysate, 0.06 μL of 100 μM SMN forward primer, 0.06 μL of 100 μM SMN reverse primer, and 0.225 μL of 100 μM SMN probe.
PCR is carried out at the following temperatures for the indicated time: Step 1: 48° C. (15 min); Step 2: 95° C. (10 min); Step 3: 95° C. (15 sec); Step 4: 60° C. (1 min); then repeat Steps 3 and 4 for a total of 40 cycles.
Each reaction mixture contains both SMN2-A minigene and GAPDH primers/probe sets (multiplex design), allowing simultaneous measurement of the levels of two transcripts.
The increase in the abundance of the FL SMN2mini mRNA relative to that in cells treated with vehicle control is determined from real-time PCR data using a modified ΔΔCt method (as described in Livak and Schmittgen, Methods, 2001, 25:402-8). The amplification efficiency E is calculated from the slope of the amplification curve for FL SMN2mini and GAPDH individually. The abundance of FL SMN2mini and GAPDH mRNA are then calculated as (1+E)^−Ct, where Ct is the threshold value for each amplicon. The abundance of FL SMN2mini mRNA is normalized to GAPDH mRNA abundance. The normalized FL SMN2mini mRNA abundance from test compound-treated samples is then divided by normalized FL SMN2mini mRNA abundance from vehicle-treated cells to determine the level of FL SMN2mini mRNA relative to vehicle control. […]

[2] = test system: SMN protein in SMA patient fibroblast cells (GM03813); assay: SMN protein assay (HTRF) in cultured cells; format: cell-based; details: Homo sapiens, SMA Type 1 patient fibroblasts, 48 hours; for EC (1.5-fold): 7-point concentration curve, concentration giving 1.5 times SMN protein vs vehicle, read-out: EC1.5x SMN protein (EC1.5x concentration for SMN protein expression); for maximal fold induction: fold increase relative to vehicle control, read-out: Max. fold increase of SMN protein
Method: The SMN HTRF (homogeneous time resolved fluorescence) assay is used to quantify the level of SMN protein in SMA patient fibroblast cells treated with test compounds. Materials used and respective sources are listed below in Table 4.
Cells are thawed and cultured in DMEM-10% FBS for 72 hours. Cells are trypsinized, counted and re-suspended to a concentration of 25,000 cells/mL in DMEM-10% FBS. The cell suspensions are plated at 5,000 cells per well in a 96 well microtiter plate and incubated for 3 to 5 hours. Test compounds are serially diluted 3.16-fold in 100% DMSO to generate a 7-point concentration curve. 1 μL of test compound solution is transferred to cell-containing wells and cells are incubated for 48 hours in a cell culture incubator (37° C., 5% CO2, 100% relative humidity). Triplicate samples are set up for each test compound concentration. After 48 hours, the supernatant is removed from the wells and 25 μL of the RIPA lysis buffer, containing protease inhibitors, is added to the wells and incubated with shaking at room temperature for 1 hour. 25 μL of the diluent is added and then 35 μL of the resulting lysate is transferred to a 384-well plate, where each well contains 5 μL of the antibody solution (1:100 dilution of anti-SMN d2 and anti-SMN cryptate in SMN reconstitution buffer). The plate is centrifuged for 1 minute to bring the solution to the bottom of the wells, then incubated overnight at room temperature. Fluorescence for each well of the plate at 665 nm and 620 nm is measured on an EnVision multilabel plate reader (Perkin-Elmer).
The normalized fluorescence signal is calculated for each sample, Blank and vehicle control well by dividing the signal at 665 nm by the signal at 620 nm. Normalizing the signal accounts for possible fluorescence quenching due to the matrix effect of the lysate. The ΔF value (a measurement of SMN protein abundance as a percent value) for each sample well is calculated by subtracting the normalized average fluorescence for the Blank control wells from the normalized fluorescence for each sample well, then dividing this difference by the normalized average fluorescence for the Blank control wells and multiplying the resulting value by 100. The ΔF value for each sample well represents the SMN protein abundance from test compound-treated samples. The ΔF value for each sample well is divided by the ΔF value for the vehicle control wells to calculate the fold increase in SMN protein abundance relative to the vehicle control. Table 5 provides EC1.5× concentrations for SMN protein expression that was obtained from the 7-point concentration data generated according to the above procedure for particular compounds of the present invention.
Table 6 provides the maximum fold increase of SMN protein that was obtained from the 7-point concentration data generated according to the above procedure for particular compounds of the present invention

## Cc1cn2cc(NC(=O)c3ccc(N4CCNC(C)C4)c(F)c3F)ncc2n1 (stereo not drawn) [Example 30, 2,3-difluoro-N-(2-methylimidazo[1,2-a]pyrazin-6-yl)-4-(3-methylpiperazin-1-yl)benzamide hydrochloride]
[1]
  EC (1.5-fold): 0.165 µM
[2]
  EC (1.5-fold): 0.603 µM
  maximal fold induction: 1.82

## COc1cc(N2C[C@@H](C)N[C@@H](C)C2)ccc1C(=O)Nc1cn2cc(C)nc2cn1 [Example 31, 4-[(3R,5S)-3,5-dimethylpiperazin-1-yl]-2-methoxy-N-(2-methylimidazo[1,2-a]pyrazin-6-yl)benzamide]
[1]
  EC (1.5-fold): 0.0358 µM
[2]
  EC (1.5-fold): 0.221 µM
  maximal fold induction: 1.87

## CC[C@@H]1CN(c2ccc(C(=O)Nc3cn4cc(C)nc4cn3)c(F)c2)CCN1 [Example 32, 4-[(3R)-3-ethylpiperazin-1-yl]-2-fluoro-N-(2-methylimidazo[1,2-a]pyrazin-6-yl)benzamide hydrochloride]
[1]
  EC (1.5-fold): 0.0268 µM
[2]
  EC (1.5-fold): 0.126 µM
  maximal fold induction: 1.81

## Cc1cn2cc(NC(=O)c3ccc(N4CC[C@@H](N5CCCC5)C4)cc3F)ncc2n1 [Example 33, 2-fluoro-N-(2-methylimidazo[1,2-a]pyrazin-6-yl)-4-[(3R)-3-pyrrolidin-1-ylpyrrolidin-1-yl]benzamide]
[1]
  EC (1.5-fold): 0.0222 µM
[2]
  EC (1.5-fold): 0.122 µM
  maximal fold induction: 1.78

## COc1cc(N2CCNC3(CC3)C2)ccc1C(=O)Nc1cn2cc(C)nc2cn1 [Example 34, 4-(4,7-diazaspiro[2.5]octan-7-yl)-2-methoxy-N-(2-methylimidazo[1,2-a]pyrazin-6-yl)benzamide]
[1]
  EC (1.5-fold): 0.214 µM
[2]
  EC (1.5-fold): 1.25 µM
  maximal fold induction: 1.69

## Cc1cn2cc(NC(=O)c3ccc(N4CCNC(C)(C)C4)cc3F)ncc2n1 [Example 35, 4-(3,3-dimethylpiperazin-1-yl)-2-fluoro-N-(2-methylimidazo[1,2-a]pyrazin-6-yl)benzamide hydrochloride]
[1]
  EC (1.5-fold): 0.0317 µM
[2]
  EC (1.5-fold): 0.505 µM
  maximal fold induction: 2.16

## CC[C@@H]1CN(c2ccc(C(=O)Nc3cn4cc(C)nc4c(C4CC4)n3)c(F)c2)CCN1 [Example 36, N-(8-cyclopropyl-2-methylimidazo[1,2-a]pyrazin-6-yl)-4-[(3R)-3-ethylpiperazin-1-yl]-2-fluorobenzamide hydrochloride]
[1]
  EC (1.5-fold): 0.0534 µM
[2]
  EC (1.5-fold): 1.09 µM
  maximal fold induction: 1.53

## Cc1cn2cc(NC(=O)c3ccc(N4CCNC(C)(C)C4)cc3F)nc(C3CC3)c2n1 [Example 37, N-(8-cyclopropyl-2-methylimidazo[1,2-a]pyrazin-6-yl)-4-(3,3-dimethylpiperazin-1-yl)-2-fluorobenzamide hydrochloride]
[1]
  EC (1.5-fold): 0.0317 µM
[2]
  EC (1.5-fold): 0.287 µM
  maximal fold induction: 1.72

## COc1cc(N2CCN[C@H](C)C2)ccc1C(=O)Nc1cn2cc(C)nc2cn1 [Example 38, 2-methoxy-N-(2-methylimidazo[1,2-a]pyrazin-6-yl)-4-[(3R)-3-methylpiperazin-1-yl]benzamide]
[1]
  EC (1.5-fold): 0.0578 µM
[2]
  EC (1.5-fold): 0.206 µM
  maximal fold induction: 1.74

## COc1cc(N2CC[C@@H](N3CCCC3)C2)ccc1C(=O)Nc1cn2cc(C)nc2cn1 [Example 39, 2-methoxy-N-(2-methylimidazo[1,2-a]pyrazin-6-yl)-4-[(3R)-3-pyrrolidin-1-ylpyrrolidin-1-yl]benzamide]
[1]
  EC (1.5-fold): 0.118 µM
[2]
  EC (1.5-fold): 0.379 µM
  maximal fold induction: 1.75

## CC[C@@H]1CN(c2ccc(C(=O)Nc3cn4cc(C)nc4cn3)c(OC)c2)CCN1 [Example 40, 4-[(3R)-3-ethylpiperazin-1-yl]-2-methoxy-N-(2-methylimidazo[1,2-a]pyrazin-6-yl)benzamide]
[1]
  EC (1.5-fold): 0.038 µM
[2]
  EC (1.5-fold): 0.388 µM
  maximal fold induction: 1.93

## COc1cc(N2CCNC(C)(C)C2)ccc1C(=O)Nc1cn2cc(C)nc2cn1 [Example 41, 4-(3,3-dimethylpiperazin-1-yl)-2-methoxy-N-(2-methylimidazo[1,2-a]pyrazin-6-yl)benzamide]
[1]
  EC (1.5-fold): 0.0464 µM
[2]
  EC (1.5-fold): 0.242 µM
  maximal fold induction: 2.05

## CC[C@H]1CN(c2ccc(C(=O)Nc3cn4cc(C)nc4cn3)c(F)c2)CCN1 [Example 42, 4-[(3S)-3-ethylpiperazin-1-yl]-2-fluoro-N-(2-methylimidazo[1,2-a]pyrazin-6-yl)benzamide hydrochloride]
[1]
  EC (1.5-fold): 0.0144 µM
[2]
  EC (1.5-fold): 0.231 µM
  maximal fold induction: 1.72

## Cc1cn2cc(NC(=O)c3ccc(N4CCN[C@H](C)C4)cc3F)nc(C(F)(F)F)c2n1 [Example 43, 2-fluoro-4-[(3R)-3-methylpiperazin-1-yl]-N-[2-methyl-8-(trifluoromethyl)imidazo[1,2-a]pyrazin-6-yl]benzamide]
[1]
  EC (1.5-fold): 0.04 µM
[2]
  EC (1.5-fold): 0.087 µM
  maximal fold induction: 1.76

## Cc1cn2cc(NC(=O)c3ccc(N4CCN[C@H](C)C4)cc3F)nc(C(F)F)c2n1 [Example 44, N-[8-(difluoromethyl)-2-methylimidazo[1,2-a]pyrazin-6-yl]-2-fluoro-4-[(3R)-3-methylpiperazin-1-yl]benzamide]
[1]
  EC (1.5-fold): 0.0095 µM
[2]
  EC (1.5-fold): 0.035 µM
  maximal fold induction: 1.79
